Publication PMC4109680, “Identification and Preclinical Pharmacology of the γ-Secretase Modulator BMS-869780” (International Journal of Alzheimer's Disease, 2014)
Read-outs that look alike come from different tables or passages of the source.

Experiment: Plasma exposure in rat 4-day oral dosing experiment
Format: in vivo
Conditions: for AUC(0-t): read-out: AUC (0–24 h); for concentration at 4 day: oral, read-out: Terminal concentration day 4
Description: All experimental procedures with animals followed National Institutes of Health guidelines and were authorized by and in compliance with policies of the Bristol-Myers Squibb Animal Use and Care Committee. Mice and rats were housed with a 6:00 AM to 6:00 PM light/dark cycle and allowed free access to food and water. For 3xTg mice, BMS-869780 was dosed in three-month-old females by oral gavage at 6 mL/kg in vehicle consisting of 84% polyethylene glycol average molecular weight of 400 (PEG-400), 15% EtOH, and 1% Tween-80 (w/w/w). The compound was dissolved in EtOH and then diluted with PEG-400 and Tween, after which the vial was sealed, vortexed, and sonicated at 56°C for 1 hour. Animals were euthanized by asphyxiation in CO2. Blood was collected by cardiac puncture and placed into ethylene-diaminetetraacetic acid microtainer tubes for the preparation of plasma. The cerebellum was collected for the determination of compound concentration, and the remaining brain was separated into left and right halves before freezing in liquid nitrogen. For the rat time course study, 8- to 12-week-old female Sprague-Dawley rats were obtained from Charles River Laboratories (Wilmington, MA), BMS-869780 was dosed orally at 4 mL/kg, and brain and plasma samples were collected as described for the 3xTg mice. For the four day repeat dose rat study, BMS-869780 was given by oral gavage in vehicle consisting of PEG-400, PEG-200, D-α-tocopheryl polyethylene glycol succinate, Solutol HS 15, in the ratio 80 : 10 : 5 : 5 (w/w/w/w). Methods for the pharmacokinetics studies in rat, dog, and monkey are described below.
As a preliminary evaluation of safety in vivo, male and female rats were given 10, 30, and 100 mg/kg BMS-869780 orally once daily for 4 days. Endpoints included brain Aβ1-42, as described above (Figures 7(d) and 7(e)), plasma PK on day 1 and day 3 (Table 4), and histopathology for duodenum, liver, and kidney.

[1] = female, rat, plasma, po, 10 mg/kg, Female, Day 1
[2] = female, rat, plasma, po, 10 mg/kg, Female, Day 3
[3] = female, rat, plasma, po, 30 mg/kg, Female, Day 1
[4] = female, rat, plasma, po, 30 mg/kg, Female, Day 3
[5] = female, rat, plasma, po, 100 mg/kg, Female, Day 1
[6] = female, rat, plasma, po, 100 mg/kg, Female, Day 3
[7] = male, rat, plasma, po, 10 mg/kg, Male, Day 1
[8] = male, rat, plasma, po, 10 mg/kg, Male, Day 3
[9] = male, rat, plasma, po, 30 mg/kg, Male, Day 1
[10] = male, rat, plasma, po, 30 mg/kg, Male, Day 3
[11] = male, rat, plasma, po, 100 mg/kg, Male, Day 1
[12] = male, rat, plasma, po, 100 mg/kg, Male, Day 3

With COc1cc(Nc2nc3n(n2)CCCC[C@H]3c2ccc(F)cc2)ccc1-n1cnc(Cl)c1 [BMS-869780] the “Terminal concentration day 4” value (100 mg/kg, Female) was 13.7 (±0.9) μM, the “AUC (0–24 h)” value (100 mg/kg, Female, Day 3) was 316.4 (±77.0) μM·h and the “Terminal concentration day 4” value (100 mg/kg, Male) was 9.2 (±3.2) μM. The “change of exposure on repeat dosing” value (day 1 versus day 3) was “no loss of exposure between day 1 and day 3”, the Cmax [1] was 2.9 µM and the Tmax [1] was 7 h. It also gave an AUC(0-t) [1] of 41 µM·h, a Cmax [2] of 2.6 µM and a Tmax [2] of 5 h. For the same compound, the AUC(0-t) [2] was 25 µM·h, the Cmax [3] was 8.2 µM and the Tmax [3] was 5 h. For the same compound, the AUC(0-t) [3] was 152 µM·h, the Cmax [4] was 14.4 µM and the Tmax [4] was 3 h. For the same compound, the AUC(0-t) [4] was 255 µM·h, the Cmax [5] was 10.6 µM and the Tmax [5] was 24 h. For the same compound, the AUC(0-t) [5] was 206 µM·h, the Cmax [6] was 15.5 µM and the Tmax [6] was 4 h. The AUC(0-t) [6] was 316 µM·h, the exposures achieved (highest dose of 100 mg/kg) was > 200 µM·h and the Cmax [7] was 2 µM. The Tmax [7] was 5 h, the AUC(0-t) [7] was 20.2 µM·h and the Cmax [8] was 1.9 µM. It also gave a Tmax [8] of 5 h, an AUC(0-t) [8] of 17.5 µM·h and a Cmax [9] of 6.1 µM. It also gave a Tmax [9] of 8 h, an AUC(0-t) [9] of 95.2 µM·h and a Cmax [10] of 10.4 µM. It also gave a Tmax [10] of 3 h, an AUC(0-t) [10] of 129 µM·h and a Cmax [11] of 7.7 µM. For the same compound, the Tmax [11] was 19 h, the AUC(0-t) [11] was 168 µM·h and the Cmax [12] was 13.2 µM. The Tmax [12] was 7 h, the AUC(0-t) [12] was 217 µM·h and the concentration at 4 day (rat, plasma, 10 mg/kg, Female) was 3 µM. The concentration at 4 day (rat, plasma, 10 mg/kg, Male) was 2.4 µM, the concentration at 4 day (rat, plasma, 30 mg/kg, Female) was 12 µM and the concentration at 4 day (rat, plasma, 30 mg/kg, Male) was 8.9 µM. The AUC (rat, plasma, po, four daily doses of 10 mg/kg) was 17.5 µM·h.
